Assay results as given in patent publication US7897591B2, “Method of treating fatty liver disease” (priority 2005, dated 2011).

Tests used:
C57BL/6 mice [1] = test: Liver histology (H&E, PAS, Oil Red O) in fat-free high carbohydrate diet (HCD) mouse model of hepatic steatosis; format: in vivo; conditions: HCD+MAR mice, 100 mg/kg twice daily, 19 days
Description: Experiments were performed on 5-6 week-old C57BL/6 mice (Jackson Laboratories, Bar Harbor, Me.). The animals, in groups of five, were housed in a barrier room and were acclimated to their environment for at least 72 hours prior to the initiation of each experiment. Animal protocols complied with the NIH Animal Research Advisory Committee guidelines and were approved by the Children's Hospital Boston Animal Care and Use Committee. Control animals (n=5) received normal chow and water ad libitum. All animals in the experimental groups were fed a fat-free, high carbohydrate liquid diet (HCD) ad libitum placed in one bottle per cage as previously described (3, 62). No additional sources of nutrition or hydration were provided. The HCD liquid solution contained 20% dextrose, a commercial mixture of 2% essential and nonessential amino acids (TrophAmine, B. Braun Medical, Irvine, Calif.), 2 ml trace elements (Trace Elements Injection 4, USP-Pediatric, American Regent Shirley, N.Y.), and 5 ml multivitamins (M.V.I. PediatricTM, Mayne Pharma, Paramus, N.J.). Each liter of HCD contained 30 meq sodium, 20 meq potassium chloride, 15 meq calcium, 10 meq magnesium, and 10 mM phosphate. The bottles were replaced daily with fresh HCD solution. HCD animals (n=5) received HCD only and no additional treatment for 19 days. The HCD+MAR animals (n=15) additionally received 100 mg/kg of MarimastatTM in 0.45% methylcellulose (Sigma-Aldrich Corporation, St. Louis, Mo.) vehicle twice daily via orogastric gavage. The animals were individually weighed every third day and at sacrifice. We then performed a midline laparotomy to observe, excise, and weigh the liver. Approximately one half of the liver was fixed in 10% formalin at 4° C. overnight, washed with phosphate buffered saline, and then embedded in paraffin. After cutting 5 μm sections, slides were stained at the Department of Pathology, Children's Hospital Boston with H&E to examine cellular architecture and lipid accumulation, and with periodic acid-Schiff (PAS) to identify the presence of glycogen. Another portion of the liver was collected as frozen sections, placed in embedding medium (Optimal Cutting Temperature OCT, […], Torrance, Calif.), and immersed in cold 2-methylbutane (Aldrich, Milwaukee, Wis.) on dry ice. The samples were stored at […]. Sections were stained at the Department of Pathology, Children's Hospital Boston with Oil Red O to detect fat.

C57BL/6 mice [2] = test: General observations: survival, stool, body weight, macroscopic liver appearance and weight; format: in vivo, mouse
Description: Experiments were performed on 5-6 week-old C57BL/6 mice (Jackson Laboratories, Bar Harbor, Me.). The animals, in groups of five, were housed in a barrier room and were acclimated to their environment for at least 72 hours prior to the initiation of each experiment. Animal protocols complied with the NIH Animal Research Advisory Committee guidelines and were approved by the Children's Hospital Boston Animal Care and Use Committee.
Control animals (n=5) received normal chow and water ad libitum. All animals in the experimental groups were fed a fat-free, high carbohydrate liquid diet (HCD) ad libitum placed in one bottle per cage as previously described (3, 62). No additional sources of nutrition or hydration were provided. The HCD liquid solution contained 20% dextrose, a commercial mixture of 2% essential and nonessential amino acids (TrophAmine, B. Braun Medical, Irvine, Calif.), 2 ml trace elements (Trace Elements Injection 4, USP—Pediatric, American Regent Shirley, N.Y.), and 5 ml multivitamins (M.V.I. Pediatric™, Mayne Pharma, Paramus, N.J.). Each liter of HCD contained 30 meq sodium, 20 meq potassium chloride, 15 meq calcium, 10 meq magnesium, and 10 mM phosphate. The bottles were replaced daily with fresh HCD solution. HCD animals (n=5) received HCD only and no additional treatment for 19 days. The HCD+MAR animals (n=15) additionally received 100 mg/kg of Marimastat™ in 0.45% methylcellulose (Sigma-Aldrich Corporation, St. Louis, Mo.) vehicle twice daily via orogastric gavage. The animals were individually weighed every third day and at sacrifice.
We then performed a midline laparotomy to observe, excise, and weigh the liver. Approximately one half of the liver was fixed in 10% formalin at 4° C. overnight, washed with phosphate buffered saline, and then embedded in paraffin. After cutting 5 μm sections, slides were stained at the Department of Pathology, Children's Hospital Boston with H&E to examine cellular architecture and lipid accumulation, and with periodic acid-Schiff (PAS) to identify the presence of glycogen.

C57BL/6 mice [3] = test: Fatty acid analysis of serum and liver lipids (triglycerides, phospholipids) in HCD mouse model; format: in vivo
Description: Experiments were performed on 5-6 week-old C57BL/6 mice (Jackson Laboratories, Bar Harbor, Me.). The animals, in groups of five, were housed in a barrier room and were acclimated to their environment for at least 72 hours prior to the initiation of each experiment. Animal protocols complied with the NIH Animal Research Advisory Committee guidelines and were approved by the Children's Hospital Boston Animal Care and Use Committee. Control animals (n=5) received normal chow and water ad libitum. All animals in the experimental groups were fed a fat-free, high carbohydrate liquid diet (HCD) ad libitum placed in one bottle per cage as previously described (3, 62). No additional sources of nutrition or hydration were provided. The HCD liquid solution contained 20% dextrose, a commercial mixture of 2% essential and nonessential amino acids (TrophAmine, B. Braun Medical, Irvine, Calif.), 2 ml trace elements (Trace Elements Injection 4, USP—Pediatric, American Regent Shirley, N.Y.), and 5 ml multivitamins (M.V.I. Pediatric™, Mayne Pharma, Paramus, N.J.). Each liter of HCD contained 30 meq sodium, 20 meq potassium chloride, 15 meq calcium, 10 meq magnesium, and 10 mM phosphate. The bottles were replaced daily with fresh HCD solution. HCD animals (n=5) received HCD only and no additional treatment for 19 days. The HCD+MAR animals (n=15) additionally received 100 mg/kg of Marimastat™ in 0.45% methylcellulose (Sigma-Aldrich Corporation, St. Louis, Mo.) vehicle twice daily via orogastric gavage. The animals were individually weighed every third day and at sacrifice. Fatty acid analysis was conducted as described previously (1, 2, 31). Briefly, lipids were extracted from serum and livers, and then fractionated into triglycerides and phospholipids by solid phase chromatography using an aminopropyl column. After appropriate processing, samples were injected into a Hewlett Packard 5890A gas chromatograph for analysis.

CNC(=O)[C@@H](NC(=O)[C@H](CC(C)C)[C@H](O)C(=O)NO)C(C)(C)C [Marimastat]
H&E inflammatory changes / necrosis (C57BL/6 mice [1]): occasional focal cellular infiltrates consistent with focal necrosis
Oil Red O staining (fat in liver) (C57BL/6 mice [1]): minimal presence of fat
PAS staining (glycogen storage) (C57BL/6 mice [1]): highly positive, granular, and widespread
steatosis on H&E sections (C57BL/6 mice [1]): No definitive steatosis
survival (C57BL/6 mice [2]; 19 day protocol): All animals survived
liver weight (C57BL/6 mice [2]; mouse, in vivo): no significant difference
stool / bowel integrity (C57BL/6 mice [2]; mouse, in vivo, 100 mg/kg): soft stool without gross signs of loss of bowel integrity
hepatic triglyceride level (C57BL/6 mice [3]; HCD+MAR vs HCD, remained higher than in controls): significantly reduced
serum triglyceride and phospholipids (C57BL/6 mice [3]; HCD+MAR, reduced in HCD-only compared to control): normalized
hepatic phospholipids (C57BL/6 mice [3]; among the three groups): no significant differences
